Tests used:
[1] = biological target: Mitogen-activated protein kinase 14 (Homo sapiens, UniProt Q16539); design: species or system Escherichia coli;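 also: inhibition of p38alpha enzyme activity in a biochemical kinase assay, with myelin basic protein serving as substrate; in other assays of this panel Not Active means under 50% inhibition at 10 µM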
[2] = biological target: T1, Glucocorticoid receptor (Homo sapiens, UniProt P04150); conditions: hela s3; also: in other assays of this panel Not Active means under 50% inhibition at 10 µM
T1 sequence (P04150 whole entry): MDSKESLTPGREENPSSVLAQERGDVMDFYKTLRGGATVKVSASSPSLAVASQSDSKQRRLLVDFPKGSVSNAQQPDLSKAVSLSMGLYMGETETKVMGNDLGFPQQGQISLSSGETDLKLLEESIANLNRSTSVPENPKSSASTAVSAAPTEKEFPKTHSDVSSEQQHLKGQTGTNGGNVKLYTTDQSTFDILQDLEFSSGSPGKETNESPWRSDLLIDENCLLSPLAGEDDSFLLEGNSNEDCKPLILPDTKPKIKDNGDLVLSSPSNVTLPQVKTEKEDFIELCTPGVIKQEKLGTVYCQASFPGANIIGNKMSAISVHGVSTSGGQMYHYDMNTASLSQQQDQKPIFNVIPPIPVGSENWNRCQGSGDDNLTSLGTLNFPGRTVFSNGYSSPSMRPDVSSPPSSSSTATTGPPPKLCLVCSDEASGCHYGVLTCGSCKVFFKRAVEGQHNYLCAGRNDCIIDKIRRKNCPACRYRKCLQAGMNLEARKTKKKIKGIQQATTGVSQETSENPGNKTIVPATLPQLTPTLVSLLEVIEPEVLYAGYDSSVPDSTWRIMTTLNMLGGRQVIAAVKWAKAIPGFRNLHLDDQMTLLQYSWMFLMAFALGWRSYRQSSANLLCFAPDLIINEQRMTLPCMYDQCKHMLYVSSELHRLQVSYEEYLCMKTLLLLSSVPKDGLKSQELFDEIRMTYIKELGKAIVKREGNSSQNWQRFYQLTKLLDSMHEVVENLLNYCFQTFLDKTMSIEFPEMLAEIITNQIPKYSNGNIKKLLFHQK

[3] = biological target: T2, B2 bradykinin receptor (Homo sapiens, UniProt P30411); format: cell membranes, Membrane; conditions: chem-1; also: in other assays of this panel Not Active means under 50% inhibition at 10 µM
T2 sequence (P30411 whole entry): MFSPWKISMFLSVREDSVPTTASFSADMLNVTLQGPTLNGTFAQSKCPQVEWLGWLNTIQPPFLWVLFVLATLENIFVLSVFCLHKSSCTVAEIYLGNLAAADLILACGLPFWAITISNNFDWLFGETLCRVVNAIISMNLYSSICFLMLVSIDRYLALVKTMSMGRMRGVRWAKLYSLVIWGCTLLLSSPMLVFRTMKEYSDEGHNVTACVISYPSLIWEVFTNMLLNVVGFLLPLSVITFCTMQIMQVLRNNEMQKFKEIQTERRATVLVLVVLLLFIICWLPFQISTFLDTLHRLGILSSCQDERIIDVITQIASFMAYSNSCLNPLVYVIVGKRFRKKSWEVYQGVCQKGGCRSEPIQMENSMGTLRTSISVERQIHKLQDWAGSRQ

[4] = biological target: T3, Alpha-1D adrenergic receptor (Homo sapiens, UniProt P25100); format: cell membranes, HEK293, Membrane; conditions: hek293; also: in other assays of this panel Not Active means under 50% inhibition at 10 µM
T3 sequence (P25100 whole entry): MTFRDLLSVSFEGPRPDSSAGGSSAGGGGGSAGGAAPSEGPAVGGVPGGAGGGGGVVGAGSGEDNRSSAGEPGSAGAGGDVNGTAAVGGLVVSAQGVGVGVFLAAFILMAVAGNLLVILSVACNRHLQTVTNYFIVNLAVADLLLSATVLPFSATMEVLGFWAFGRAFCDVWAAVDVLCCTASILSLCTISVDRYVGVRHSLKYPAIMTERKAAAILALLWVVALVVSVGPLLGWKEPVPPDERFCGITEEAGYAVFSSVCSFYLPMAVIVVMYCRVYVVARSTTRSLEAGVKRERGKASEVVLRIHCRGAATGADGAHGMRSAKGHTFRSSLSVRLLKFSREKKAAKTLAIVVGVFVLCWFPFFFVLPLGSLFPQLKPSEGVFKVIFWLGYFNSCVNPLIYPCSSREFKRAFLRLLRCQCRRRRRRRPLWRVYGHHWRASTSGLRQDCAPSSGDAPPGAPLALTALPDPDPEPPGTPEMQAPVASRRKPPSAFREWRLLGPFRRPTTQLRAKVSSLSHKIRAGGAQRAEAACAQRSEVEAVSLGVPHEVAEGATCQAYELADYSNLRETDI

[5] = DRUGMATRIX: Tumor Necrosis Factor (TNF), Non-Selective radioligand binding (ligand: [125I] TNF-alpha); format: cell membranes, Membrane; conditions: u-937; Not Active = under 50% inhibition at 10 µM
[6] = DRUGMATRIX: Nicotinic Acetylcholine radioligand binding (ligand: [125I] Epibatidine); format: cell membranes, Membrane; conditions: imr-32; Not Active = under 50% inhibition at 10 µM
[7] = biological target: T4, Cathepsin G (Homo sapiens, UniProt P08311); format: tissue-based; conditions: neutrophil
T4 sequence (P08311 whole entry): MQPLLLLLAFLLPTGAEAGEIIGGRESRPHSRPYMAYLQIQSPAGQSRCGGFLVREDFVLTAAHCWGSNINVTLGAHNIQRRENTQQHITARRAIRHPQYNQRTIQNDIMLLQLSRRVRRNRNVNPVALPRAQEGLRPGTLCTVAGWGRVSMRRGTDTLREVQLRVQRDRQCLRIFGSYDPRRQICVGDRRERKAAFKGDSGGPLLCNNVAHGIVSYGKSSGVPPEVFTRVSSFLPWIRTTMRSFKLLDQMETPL

[8] = DRUGMATRIX: Platelet-Derived Growth Factor (PDGF) radioligand binding (ligand: [125I] PDGF); format: cell-based; conditions: nih3t3; Not Active = under 50% inhibition at 10 µM

Mitogen-activated protein kinase 14, sequence (Q16539 whole entry): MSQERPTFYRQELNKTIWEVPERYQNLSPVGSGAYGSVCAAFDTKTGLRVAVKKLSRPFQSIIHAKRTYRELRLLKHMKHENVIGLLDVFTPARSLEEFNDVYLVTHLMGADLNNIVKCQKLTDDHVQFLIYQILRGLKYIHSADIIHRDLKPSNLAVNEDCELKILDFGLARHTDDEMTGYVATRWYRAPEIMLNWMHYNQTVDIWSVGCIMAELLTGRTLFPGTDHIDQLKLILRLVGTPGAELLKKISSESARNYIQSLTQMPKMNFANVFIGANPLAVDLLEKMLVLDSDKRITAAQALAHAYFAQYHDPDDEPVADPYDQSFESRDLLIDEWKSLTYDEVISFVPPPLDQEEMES

Row | Compound | IC50 [1] | IC50 [2] | IC50 [3] | IC50 [4] | IC50 [5] | Ki [5] | IC50 [6] | Ki [6] | IC50 [7] | IC50 [8] | Ki [8] | IC50 ([1]; read-out: IC50)
1 | CCOc1nc2cccc(C(=O)O)c2n1Cc1ccc(-c2ccccc2-c2nnn[nH]2)cc1 | Not Active | Not Active | Not Active | Not Active | Not Active | Not Active | Not Active | Not Active | Not Active | Not Active | Not Active | 
2 | O=C(O)CCCc1cccs1 | Not Active | Not Active | Not Active | Not Active | Not Active | Not Active | Not Active | Not Active | Not Active | Not Active | Not Active | 
3 | O=C(c1ccccc1F)N1CCC(Cc2ccccc2)CC1 |  | Not Active | Not Active | Not Active | Not Active | Not Active | Not Active | Not Active | Not Active | Not Active | Not Active | 537 nM
4 | CC(O)COC[C@H]1O[C@@H]2O[C@H]3[C@H](O)[C@@H](O)[C@@H](O[C@H]4[C@H](O)[C@@H](O)[C@@H](O[C@H]5[C@H](O)[C@@H](O)[C@@H](O[C@H]6[C@H](O)[C@@H](O)[C@@H](O[C@H]7[C@H](O)[C@@H](O)[C@@H](O[C@H]8[C@H](O)[C@@H](O)[C@@H](O[C@H]1[C@H](O)[C@H]2O)O[C@@H]8COCC(C)O)O[C@@H]7COCC(C)O)O[C@@H]6COCC(C)O)O[C@@H]5COCC(C)O)O[C@@H]4COCC(C)O)O[C@@H]3COCC(C)O (stereo partly drawn) [2-HYDROXYPROPYL-BETA-CYCLODEXTRIN] | Not Active | Not Active | Not Active | Not Active | Not Active | Not Active | Not Active | Not Active | Not Active | Not Active | Not Active | 
5 | NC(=O)c1cccc(N)c1 [3-AMINOBENZAMIDE] | Not Active | Not Active | Not Active | Not Active | Not Active | Not Active | Not Active | Not Active | Not Active | Not Active | Not Active | 
6 | C[C@H]1O[C@H](O[C@H]2[C@H](O)[C@@H](O)[C@@H](O[C@H]3[C@H](O)[C@@H](O)C(O)O[C@@H]3CO)O[C@@H]2CO)[C@H](O)[C@@H](O)[C@@H]1N[C@H]1C=C(CO)[C@@H](O)[C@H](O)[C@H]1O (stereo partly drawn) [ACARBOSE] | Not Active | Not Active | Not Active | Not Active | Not Active | Not Active | Not Active | Not Active | Not Active | Not Active | Not Active | 
7 | CC[C@H]1[C@@H]2C[C@H]3[C@@H]4N(C)c5ccccc5[C@]45C[C@@H]([C@@H]2[C@H]5O)N3[C@@H]1O [AJMALINE] | Not Active | Not Active | Not Active | Not Active | Not Active | Not Active | Not Active | Not Active | Not Active | Not Active | Not Active | 
8 | NC12CC3CC(CC(C3)C1)C2 [AMANTADINE] | Not Active | Not Active | Not Active | Not Active | Not Active | Not Active | Not Active | Not Active | Not Active | Not Active | Not Active | 
